Experimental data reported in patent US12371454B2, “Cyclic peptide compound having Kras inhibitory action” (priority 2019, dated 2025).
Positions of bridges follow the written chain, without caps; N, C: chain ends. Non-standard residues stand in square brackets, D forms with d. Residues, ends and D or L forms follow the SMILES beside them. *: point of attachment. hPhe(3-Cl-4-CF3) = N[C@@H](CCc1ccc(C(F)(F)F)c(Cl)c1)C(=O)O; NMePhe(3-Cl) = CN[C@@H](Cc1cccc(Cl)c1)C(=O)O; NMePhe(4-Cl) = CN[C@@H](Cc1ccc(Cl)cc1)C(=O)O; NMePhe(4-Me) = CN[C@@H](Cc1ccc(C)cc1)C(=O)O; hPhe(4-Cl) = N[C@@H](CCc1ccc(Cl)cc1)C(=O)O; NMeMet(O2) = CN[C@@H](CCS(C)(=O)=O)C(=O)O; NMeAla(cPent) = CN[C@@H](CC1CCCC1)C(=O)O; NMeGly(cPent) = CN[C@H](C(=O)O)C1CCCC1; Phe(3-F) = N[C@@H](Cc1cccc(F)c1)C(=O)O; Phe(3-I) = N[C@@H](Cc1cccc(I)c1)C(=O)O; Phe(4-Me) = Cc1ccc(C[C@H](N)C(=O)O)cc1; NMeGly(cBu) = CN[C@H](C(=O)O)C1CCC1; NMeCha = CN[C@@H](CC1CCCCC1)C(=O)O; Azetidine(3,3-F2) = FC1(F)CN(*)C1; NMeChg = CN[C@H](C(=O)O)C1CCCCC1; NMeF = CN[C@@H](Cc1ccccc1)C(=O)O; NMeE = CN[C@@H](CCC(=O)O)C(=O)O; NMeD = CN[C@@H](CC(=O)O)C(=O)O; NMeL = CN[C@@H](CC(C)C)C(=O)O; NMeNva = CCC[C@H](NC)C(=O)O; NMeV = CN[C@H](C(=O)O)C(C)C; d(β3hA) = C[C@@H](N)CC(=O)O; NMeA = CN[C@@H](C)C(=O)O; NMeAib = CNC(C)(C)C(=O)O; Piperidide = C1CCN(*)CC1; Pyrrolidide = C1CCN(*)C1; Ac5c = NC1(C(=O)O)CCCC1; Aze = O=C(O)[C@@H]1CCN1; Sar = CNCC(=O)O

target: T1, Kras and SOS1 (biotin-tagged human Kras loaded with GDP, His-tagged human SOS1) (Homo sapiens, UniProt P01116, G12D); assay: Protein-protein interaction inhibition between Kras and SOS1 (KrasGl2D-SOS PPI) using AlphaScreen; format: binding; details: AlphaScreen; biotin-tagged human Kras loaded with GDP, His-tagged human SOS1; read-out: KRAS G12D-SOS PPI IC50
T1 construct: made in house; host or cells: E. coli (stated for Kras only)
Method in brief: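 AlphaScreen format: Ni donor beads capture His-SOS1, streptavidin acceptor beads capture biotinylated Kras (E. coli-expressed, GDP-loaded post-purification). Excite 680 nm, read 520-620 nm.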

T1 sequence (P01116 1-188 isoform P01116-2 G12D): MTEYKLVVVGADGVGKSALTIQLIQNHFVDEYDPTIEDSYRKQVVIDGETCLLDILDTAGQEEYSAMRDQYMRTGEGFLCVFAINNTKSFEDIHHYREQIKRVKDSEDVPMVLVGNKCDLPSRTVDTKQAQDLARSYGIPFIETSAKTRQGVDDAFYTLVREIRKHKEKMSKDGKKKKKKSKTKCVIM

First: CC[C@H](C)[C@@H]1NC(=O)[C@H](CC(C)C)N(C)C(=O)C[C@@H](C(=O)N2CCCCC2)N(C)C(=O)[C@H](CCS(C)(=O)=O)N(C)C(=O)C2(CCCC2)NC(=O)[C@@H]2CCCN2C(=O)[C@H](CCc2ccc(C(F)(F)F)c(Cl)c2)NC(=O)CN(C)C(=O)[C@H](CC2CCCCC2)N(C)C(=O)CN(C)C(=O)CN(C)C1=O [Compound 162] ([NMeL]I[Sar][Sar][NMeCha][Sar][hPhe(3-Cl-4-CF3)]P[Ac5c][NMeMet(O2)][NMeD]-Piperidide; lactam N-11)
Second: CCC[C@H]1C(=O)N(C)CC(=O)N[C@@H](CCc2ccc(C(F)(F)F)c(Cl)c2)C(=O)N2CCC[C@H]2C(=O)NC2(CCCC2)C(=O)N(C)[C@@H](C2CCCCC2)C(=O)N(C)[C@H](C(=O)N2CCCCC2)CC(=O)N(C)[C@@H](CC(C)C)C(=O)N[C@@H]([C@@H](C)CC)C(=O)N(C)CC(=O)N(C)CC(=O)N1C [Compound 187] ([NMeL]I[Sar][Sar][NMeNva][Sar][hPhe(3-Cl-4-CF3)]P[Ac5c][NMeChg][NMeD]-Piperidide; lactam N-11)
The IC50 of the first is 72-fold higher: 230 nM for the first, 3.2 nM for the second. The second is the more potent here.

`CC[C@H](C)[C@@H]1NC(=O)[C@H](CC(C)C)N(C)C(=O)C[C@@H](C(=O)N2CCCCC2)N(C)C(=O)[C@H](CC(C)C)NC(=O)C(C)(C)N(C)C(=O)[C@H](Cc2ccc(C)cc2)NC(=O)[C@H](Cc2cccc(I)c2)NC(=O)CN(C)C(=O)[C@H](CC2CCCCC2)N(C)C(=O)CN(C)C(=O)CN(C)C1=O` [Compound 166] ([NMeL]I[Sar][Sar][NMeCha][Sar][Phe(3-I)][Phe(4-Me)][NMeAib]L[NMeD]-Piperidide; lactam N-11) and `CC[C@H](C)[C@@H]1NC(=O)[C@H](CC(C)C)N(C)C(=O)C[C@@H](C(=O)N2CCCCC2)N(C)C(=O)[C@H](CC(C)C)NC(=O)C(C)(C)N(C)C(=O)[C@H](Cc2ccc(OC)cc2)NC(=O)[C@H](Cc2cccc(I)c2)NC(=O)CN(C)C(=O)[C@H](CC2CCCCC2)N(C)C(=O)[C@@H]2CCN2C(=O)[C@H](C)N(C)C1=O` [Compound 169] ([NMeL]I[NMeA][Aze][NMeCha][Sar][Phe(3-I)]Y(Me)[NMeAib]L[NMeD]-Piperidide; lactam N-11) are within 1.5-fold of each other in IC50: 21 nM for the first, 16 nM for the second.

Going from `CC[C@H](C)[C@@H]1NC(=O)[C@H](CC(C)C)N(C)C(=O)C[C@@H](C(=O)N2CCCCC2)N(C)C(=O)[C@H](C(C)C)N(C)C(=O)C2(CCCC2)NC(=O)[C@@H]2CCCN2C(=O)[C@H](CCc2ccc(Cl)cc2)NC(=O)CN(C)C(=O)[C@H](CC2CCCC2)N(C)C(=O)CN(C)C(=O)CN(C)C1=O` [Compound 167] ([NMeL]I[Sar][Sar][NMeAla(cPent)][Sar][hPhe(4-Cl)]P[Ac5c][NMeV][NMeD]-Piperidide; lactam N-11) to `CC[C@H](C)[C@@H]1NC(=O)[C@H](CC(C)C)N(C)C(=O)C[C@@H](C(=O)N2CCCCC2)N(C)C(=O)[C@H](C(C)C)N(C)C(=O)C2(CCCC2)NC(=O)[C@@H]2CCCN2C(=O)[C@H](CCc2ccc(C(F)(F)F)c(Cl)c2)NC(=O)CN(C)C(=O)[C@H](CC2CCCCC2)N(C)C(=O)[C@@H]2CCN2C(=O)[C@H](CCC(=O)NC)N(C)C1=O` [Compound 180] ([NMeL]I[NMeE](NHMe)[Aze][NMeCha][Sar][hPhe(3-Cl-4-CF3)]P[Ac5c][NMeV][NMeD]-Piperidide; lactam N-11), the IC50 falls from 58 nM to 11 nM (5.3-fold). The second is the more potent here.

First: CC[C@H](C)[C@@H]1NC(=O)[C@H](CC(C)C)N(C)C(=O)C[C@@H](C(=O)N(C)C)N(C)C(=O)[C@H](C2CCCC2)N(C)C(=O)C2(CCCC2)NC(=O)[C@H](Cc2cccc(Cl)c2)N(C)C(=O)[C@H](CCc2ccc(C(F)(F)F)c(Cl)c2)NC(=O)CN(C)C(=O)[C@H](CC2CCCCC2)N(C)C(=O)[C@@H]2CCN2C(=O)[C@H](C)N(C)C1=O [Compound 179] ([NMeL]I[NMeA][Aze][NMeCha][Sar][hPhe(3-Cl-4-CF3)][NMePhe(3-Cl)][Ac5c][NMeGly(cPent)][NMeD]-NMe2; lactam N-11)
Second: CC[C@H](C)[C@@H]1NC(=O)[C@H](CC(C)C)N(C)C(=O)C[C@@H](C(=O)N(C)C)N(C)C(=O)[C@H](C2CCCC2)N(C)C(=O)C2(CCCC2)NC(=O)[C@@H](C)NC(=O)[C@H](CCc2ccc(C(F)(F)F)c(Cl)c2)NC(=O)CN(C)C(=O)[C@H](CC2CCCCC2)N(C)C(=O)[C@@H]2CCN2C(=O)[C@H](C)N(C)C1=O [Compound 191] ([NMeL]I[NMeA][Aze][NMeCha][Sar][hPhe(3-Cl-4-CF3)][dA][Ac5c][NMeGly(cPent)][NMeD]-NMe2; lactam N-11)
The IC50 of the first is 12-fold higher: 42 nM for the first, 3.4 nM for the second. The second is the more potent here.

Compared with `CC[C@H](C)[C@@H]1NC(=O)[C@H](CC(C)C)N(C)C(=O)C[C@@H](C)NC(=O)[C@H](C2CCC2)N(C)C(=O)C2(CCCC2)NC(=O)[C@@H]2CCCN2C(=O)[C@H](CCc2ccc(C(F)(F)F)c(Cl)c2)NC(=O)CN(C)C(=O)[C@H](CC2CCCCC2)N(C)C(=O)CN(C)C(=O)CN(C)C1=O` [Compound 183] (cyclo([Ac5c][NMeGly(cBu)][d(β3hA)][NMeL]I[Sar][Sar][NMeCha][Sar][hPhe(3-Cl-4-CF3)]P)), `CC[C@H](C)[C@@H]1NC(=O)[C@H](CC(C)C)N(C)C(=O)C[C@@H](C)NC(=O)[C@H](C(C)C)N(C)C(=O)C2(CCCC2)NC(=O)[C@@H]2CCCN2C(=O)[C@H](CCc2ccc(C(F)(F)F)c(Cl)c2)NC(=O)CN(C)C(=O)[C@H](CC2CCCCC2)N(C)C(=O)CN(C)C(=O)[C@@H]2CCCN2C1=O` [Compound 185] (cyclo([Ac5c][NMeV][d(β3hA)][NMeL]IP[Sar][NMeCha][Sar][hPhe(3-Cl-4-CF3)]P)) is 6.5-fold higher in IC50: 26 nM for the first, 170 nM for the second. The first is the more potent here.

First: CC[C@H](C)[C@@H]1NC(=O)[C@H](C)N(C)C(=O)C[C@@H](C(=O)N2CCCC2)NC(=O)[C@H](C(C)C)N(C)C(=O)[C@H](Cc2ccccc2)N(C)C(=O)[C@H](Cc2ccccc2)NC(=O)[C@H](Cc2cccc(F)c2)NC(=O)CN(C)C(=O)[C@H](Cc2ccc(Cl)cc2)N(C)C(=O)CN(C)C(=O)CN(C)C1=O [Compound 184] ([NMeA]I[Sar][Sar][NMePhe(4-Cl)][Sar][Phe(3-F)]F[NMeF][NMeV]D-Pyrrolidide; lactam N-11)
Second: CC[C@H](C)[C@@H]1NC(=O)[C@H](CC(C)C)N(C)C(=O)C[C@@H](C(=O)N2CCCCC2)N(C)C(=O)[C@H](CC(C)C)NC(=O)C(C)(C)N(C)C(=O)[C@H](Cc2ccc(OC)cc2)NC(=O)[C@H](Cc2cccc(I)c2)NC(=O)CN(C)C(=O)[C@H](Cc2ccc(C)cc2)N(C)C(=O)[C@@H]2CCN2C(=O)CN(C)C1=O [Compound 188] ([NMeL]I[Sar][Aze][NMePhe(4-Me)][Sar][Phe(3-I)]Y(Me)[NMeAib]L[NMeD]-Piperidide; lactam N-11)
The IC50 of the first is 52-fold higher: 320 nM for the first, 6.1 nM for the second. The second is the more potent here.

Going from `CC[C@H](C)[C@@H]1NC(=O)[C@H](C)N(C)C(=O)C[C@@H](C)NC(=O)[C@H](C2CCCC2)N(C)C(=O)C2(CCCC2)NC(=O)[C@@H]2CCCN2C(=O)[C@H](CCc2ccc(C(F)(F)F)c(Cl)c2)NC(=O)CN(C)C(=O)[C@H](Cc2cccc(Cl)c2)N(C)C(=O)[C@@H]2CCCN2C(=O)CN(C)C1=O` [Compound 186] (cyclo([Ac5c][NMeGly(cPent)][d(β3hA)][NMeA]I[Sar]P[NMePhe(3-Cl)][Sar][hPhe(3-Cl-4-CF3)]P)) to `CC[C@H](C)[C@@H]1NC(=O)[C@H](C)N(C)C(=O)C[C@@H](C(=O)N2CCCCC2)N(C)C(=O)[C@H](C(C)C)N(C)C(=O)[C@H](CC(C)C)NC(=O)[C@H](CC(=O)N2CC(F)(F)C2)N(C)C(=O)[C@H](CCc2ccc(C(F)(F)F)c(Cl)c2)NC(=O)CN(C)C(=O)[C@H](CC2CCCCC2)N(C)C(=O)CN(C)C(=O)CN(C)C1=O` [Compound 190] ([NMeA]I[Sar][Sar][NMeCha][Sar][hPhe(3-Cl-4-CF3)][NMeD](Azetidine(3,3-F2))L[NMeV][NMeD]-Piperidide; lactam N-11), the IC50 rises from 48 nM to 150 nM (3.1-fold). The first is the more potent here.
